pEC50, pIC50: −log10 of the molar value.
Columns and labels:
Format in all cases: cell-based
[1] = system: U937 cells; experiment: U937 cell growth inhibition (direct antitumor action, CellTiterGlo); conditions: for pIC50: U937 cell growth inhibition, 4 days culture; for direct antitumor activity (in words): U937 growth inhibition
Description: (§1) The direct antitumor action of bisphosphonic acid POM ester and bisphosphonic acid was studied by comparison using U937.
(§2) The direct antitumor action of various bisphosphonic acid POM esters was studied by comparison using U937 and EJ-1. The measurement was performed according to Experimental Example 2 and Experimental Example 4.

[2] = system: EJ-1 cells; experiment: EJ-1 cell growth inhibition (direct antitumor action, CellTiterGlo); conditions: for pIC50: EJ-1 (bladder cancer) growth inhibition, 4 days culture; for direct antitumor activity (in words): EJ-1 growth inhibition
Description: as §1
(§3) The direct antitumor action of bisphosphonic acid POM ester derivatives and bisphosphonic acids was studied by comparison using EJ-1. It was performed in the same manner as in Experimental Example 1 except that EJ-1 was used as the cell to be used. For recovery of the cells, a conventional EDTA trypsin treatment was performed.
as §3, with “POM esters” for “POM ester derivatives”, “Example 2” for “Example 1”
as §2

[3] = system: EJ-1 cells / γδ T cells; experiment: TNF-α production from γδ T cells stimulated by compound-pretreated EJ-1 cells (indirect antitumor action, ELISA); conditions: for pEC50: EJ-1 pretreated 4 hr with compound, 16 hr with γδ T cells, TNF-α ELISA, read-out: TNF-α50
Description: The indirect antitumor action of bisphosphonic acid POM esters and bisphosphonic acids was studied by comparison using EJ-1. In principle, EJ-1 is treated with a compound, washed, and reacted with γδ T cells, and the cytotoxic ability is studied by comparison, by quantifying TNF-α produced by γδ T cells during cell disordering. TNF-α is generally used as an index of γδ T cell induction ability and/or proliferative capacity, and γδ T cells are considered to be induced and/or proliferated in proportion to the TNF-α amount (Journal of Immunology, 154, 5986-5994 (1995)). Since the produced TNF-α is what is called a tumor necrosis factor, it is considered to have an action to lower proliferation of cancer cells or induce cell death.
Thereto was added a solution (500 μl) of compounds 3, 5, 6, 7, which are bisphosphonic acid POM ester derivatives, obtained by serially diluting 10 mM stock solution 10-fold from 20 μM, or a solution (500 μl) of bisphosphonic acid 10, 12, 13, 14 compound obtained by serially diluting 10-fold from 200 μM, and the cells were suspended well. These conical tubes were stood at 37° C. for 4 hr, and the cells were washed 3 times with 5 ml of culture medium. To these cells was added 500 μl of medium, and the cells were suspended well. […] The cell culture medium was suspended well, and the plate was centrifuged at 1,700 rpm, 4° C. for 2 min and the culture supernatant (150 μl) was taken and placed in another round-bottomed 96 well plate. The plate was frozen at −80° C. overnight, left standing at room temperature for 1 hr, stirred well and 100 μl thereof was subjected to ELISA of TNF-α. The content of TNF-α was calculated from the analytical curve of TNF-α. These were performed in triplicate, and a graph showing bisphosphonic acid POM ester derivative and the corresponding bisphosphonic acid as one pair was plotted. […] The results of bisphosphonic acid POM ester derivative are shown by -●-, and the results of bisphosphonic acid are shown by -◯-.
The indirect antitumor action of bisphosphonic acid POM esters and bisphosphonic acids was quantitatively studied by comparison using EJ-1. […] Thereto was added a solution (500 μl) of a bisphosphonic acid POM ester derivative obtained by serially diluting 10 mM stock solution 10-fold from 20 μM, or a bisphosphonic acid solution (500 μl) serially diluted 10-fold from 200 μM was added, and the cells were suspended well. These conical tubes were stood at 37° C. for 4 hr, and the cells were washed 3 times with 5 ml of culture medium. To these cells was added 500 μl of medium, and the cells were suspended well. […] The cell culture medium was suspended well, and the plate was centrifuged at 1,700 rpm, 4° C. for 2 min and the culture supernatant (150 μl) was taken and placed in another round-bottomed 96 well plate. The plate was frozen at −80° C. overnight, left standing at room temperature for 1 hr, stirred well and 100 μl thereof was subjected to ELISA of TNF-α. The content of TNF-α was calculated from the analytical curve of TNF-α. These were performed in triplicate, and a half of the concentration of compounds 1-7, which are bisphosphonic acid POM ester derivatives, and compounds 8-14, which are bisphosphonic acids, necessary for producing the maximum amount of TNF-α from γδ T cells was calculated as TNF-α50, and summarized in Table 6.
Therefore, the TNF-α50 value of various bisphosphonic acid POM ester derivatives was calculated. […] Thereto was added a solution (500 μl) of compounds 1-7 and 15-39, which are bisphosphonic acid POM ester derivatives, and compound 42, which is other bisphosphonic acid ester derivative, obtained by serially diluting 10 mM stock solution 10-fold from 20 μM, and the cells were suspended well. These conical tubes were stood at 37° C. for 4 hr, and the cells were washed 3 times with 5 ml of culture medium. To these cells was added 500 μl of medium, and the cells were suspended well. […]

| SMILES | pIC50 [1] | pIC50 [2] | pEC50 [3] | direct antitumor activity (in words) [1] | direct antitumor activity (in words) [2] | TNF-α production induction activity (in words) ([3]; EJ-1 pretreated with compound, γδ T cells) |
| --- | --- | --- | --- | --- | --- | --- |
| CCCCCCCCc1ccc(NCC(P(=O)(OCOC(=O)C(C)(C)C)OCOC(=O)C(C)(C)C)P(=O)(OCOC(=O)C(C)(C)C)OCOC(=O)C(C)(C)C)nc1 [Compound 22, tetrakispivaloyloxymethyl 2-(5-octanylpyridin-2-ylamino)ethylidene-1,1-bisphosphonate] | 5.47 | 5.43 | 5.32 | – | – | – |
| CCCCCCCCc1cccnc1NCC(P(=O)(OCOC(=O)C(C)(C)C)OCOC(=O)C(C)(C)C)P(=O)(OCOC(=O)C(C)(C)C)OCOC(=O)C(C)(C)C [Compound 23, tetrakispivaloyloxymethyl 2-(3-octanylpyridin-2-ylamino)ethylidene-1,1-bisphosphonate] | 5.46 | 5.35 | 5.47 | – | – | – |
| CCCCCCCCc1cccc(NCC(P(=O)(OCOC(=O)C(C)(C)C)OCOC(=O)C(C)(C)C)P(=O)(OCOC(=O)C(C)(C)C)OCOC(=O)C(C)(C)C)n1 [Compound 24, tetrakispivaloyloxymethyl 2-(6-octanylpyridin-2-ylamino)ethylidene-1,1-bisphosphonate] | 5.52 | 5.20 | < 5.00 | – | – | – |
| COc1ccc(-c2cccnc2NCC(P(=O)(OCOC(=O)C(C)(C)C)OCOC(=O)C(C)(C)C)P(=O)(OCOC(=O)C(C)(C)C)OCOC(=O)C(C)(C)C)cc1 [Compound 25, tetrakispivaloyloxymethyl 2-[3-(4-methoxyphenyl)pyridin-2-ylamino]ethylidene-1,1-bisphosphonate] | 5.21 | 5.06 | < 5.00 | – | – | – |
| CC(C)(C)C(=O)OCOP(=O)(OCOC(=O)C(C)(C)C)C(CNc1ncccc1-c1ccc(F)cc1)P(=O)(OCOC(=O)C(C)(C)C)OCOC(=O)C(C)(C)C [Compound 26, tetrakispivaloyloxymethyl 2-[3-(4-fluorophenyl)pyridin-2-ylamino]ethylidene-1,1-bisphosphonate] | 5.15 | 5.06 | < 5.00 | – | – | – |
| CC(C)(C)C(=O)OCOP(=O)(OCOC(=O)C(C)(C)C)C(CNc1ncccc1O)P(=O)(OCOC(=O)C(C)(C)C)OCOC(=O)C(C)(C)C [Compound 27, tetrakispivaloyloxymethyl 2-(3-hydroxypyridin-2-ylamino)ethylidene-1,1-bisphosphonate] | 5.05 | 4.89 | 5.34 | – | – | – |
| CC(C)(C)C(=O)OCOP(=O)(OCOC(=O)C(C)(C)C)C(CNc1cc(Br)ccn1)P(=O)(OCOC(=O)C(C)(C)C)OCOC(=O)C(C)(C)C [Compound 28, tetrakispivaloyloxymethyl 2-(4-bromopyridin-2-ylamino)ethylidene-1,1-bisphosphonate] | 5.15 | 5.22 | 5.19 | – | – | – |
| CC(C)(C)C(=O)OCOP(=O)(OCOC(=O)C(C)(C)C)C(CNc1ccnc(Br)c1)P(=O)(OCOC(=O)C(C)(C)C)OCOC(=O)C(C)(C)C [Compound 29, tetrakispivaloyloxymethyl 2-(2-bromopyridin-4-ylamino)ethylidene-1,1-bisphosphonate] | 5.18 | 4.92 | < 5.00 | – | – | – |
| CC(C)(C)C(=O)OCOP(=O)(OCOC(=O)C(C)(C)C)C(CNc1ccc2ccccc2n1)P(=O)(OCOC(=O)C(C)(C)C)OCOC(=O)C(C)(C)C [Compound 30, tetrakispivaloyloxymethyl 2-(quinolin-2-ylamino)ethylidene-1,1-bisphosphonate] | 5.18 | 5.00 | < 5.00 | – | – | – |
| CC(C)(C)C(=O)OCOP(=O)(OCOC(=O)C(C)(C)C)C(Cn1ccc2cccnc21)P(=O)(OCOC(=O)C(C)(C)C)OCOC(=O)C(C)(C)C [Compound 31, tetrakispivaloyloxymethyl 2-(7-azaindol-1-yl)ethylidene-1,1-bisphosphonate] | 5.66 | 5.77 | 5.80 | high activity | high activity | – |
| CC(C)(C)C(=O)OCOP(=O)(OCOC(=O)C(C)(C)C)C(CNc1cc[nH]n1)P(=O)(OCOC(=O)C(C)(C)C)OCOC(=O)C(C)(C)C [Compound 32, tetrakispivaloyloxymethyl 2-(pyrazol-3-ylamino) ethylidene-1,1-bisphosphonate] | 5.20 | 4.92 | 5.36 | – | – | – |
| Cc1csc(NCC(P(=O)(OCOC(=O)C(C)(C)C)OCOC(=O)C(C)(C)C)P(=O)(OCOC(=O)C(C)(C)C)OCOC(=O)C(C)(C)C)n1 [Compound 33, tetrakispivaloyloxymethyl 2-(4-methylthiazol-2-ylamino)ethylidene-1,1-bisphosphonate] | 5.30 | 5.38 | 5.44 | – | – | – |
| Cc1cnc(NCC(P(=O)(OCOC(=O)C(C)(C)C)OCOC(=O)C(C)(C)C)P(=O)(OCOC(=O)C(C)(C)C)OCOC(=O)C(C)(C)C)s1 [Compound 34, tetrakispivaloyloxymethyl 2-(5-methylthiazol-2-ylamino)ethylidene-1,1-bisphosphonate] | 5.60 | 5.96 | 7.20 | high activity | high activity | high activity |
| CC(C)(C)C(=O)OCOP(=O)(OCOC(=O)C(C)(C)C)C(CNc1nc(-c2ccccc2)cs1)P(=O)(OCOC(=O)C(C)(C)C)OCOC(=O)C(C)(C)C [Compound 35, tetrakispivaloyloxymethyl 2-(4-phenylthiazol-2-ylamino)ethylidene-1,1-bisphosphonate] | 5.96 | 5.46 | < 5.00 | high activity | high activity | – |
| CC(C)(C)C(=O)OCOP(=O)(OCOC(=O)C(C)(C)C)C(CNc1ccon1)P(=O)(OCOC(=O)C(C)(C)C)OCOC(=O)C(C)(C)C [Compound 36, tetrakispivaloyloxymethyl 2-(isoxazol-3-ylamino)ethylidene-1,1-bisphosphonate] | 5.10 | 4.82 | 5.10 | – | – | – |
| Cc1cc(NCC(P(=O)(OCOC(=O)C(C)(C)C)OCOC(=O)C(C)(C)C)P(=O)(OCOC(=O)C(C)(C)C)OCOC(=O)C(C)(C)C)no1 [Compound 37, tetrakispivaloyloxymethyl 2-(5-methylisoxazol-3-ylamino)ethylidene-1,1-bisphosphonate] | 5.10 | 4.80 | < 5.00 | – | – | – |
| CC(C)(C)C(=O)OCOP(=O)(OCOC(=O)C(C)(C)C)C(CNc1nncs1)P(=O)(OCOC(=O)C(C)(C)C)OCOC(=O)C(C)(C)C [Compound 38, tetrakispivaloyloxymethyl 2-(1,3,4-thiadiazol-2-ylamino)ethylidene-1,1-bisphosphonate] | 4.96 | 5.07 | 5.72 | – | – | – |
